Experimental data from ChEMBL document CHEMBL4477224, “Antidiabetic effect, antioxidant activity, and toxicity of 3',4'-Di-O-acetyl-cis-khellactone in Streptozotocin-induced diabetic rats” (Bioorg Med Chem Lett, 2016).
Calls of active or inactive are those of the source. The calls are words filed in the database; no cut-off is given here.

Experiments:
[1] = Acute toxicity in ig dosed BALB/c mouse assessed as mortality measured for 14 days; format: organism-based; conditions: in vivo, po
[2] = Mutagenicity in Salmonella typhimurium TA102 assessed as mutagenic index at 17.30 uM/plate after 48 hrs in presence of S9 fraction by Ames test relative to control; format: toxicity, subcellular; conditions: salmonella enterica subsp. enterica serovar typhimurium, s9, 48 h, 17.3 µM
[3] = Mutagenicity in Salmonella typhimurium TA100 assessed as mutagenic index at 50 uM/plate after 48 hrs in absence of S9 fraction by Ames test relative to control; format: toxicity; conditions: salmonella enterica subsp. enterica serovar typhimurium, s9, 48 h
Rattus norvegicus [4] = test: Antidiabetic activity in STZ-induced diabetic Wistar rat assessed as decrease in blood glucose level at 15 mg/kg, po administered for 15 days post STZ challenge measured on day 21 by glucometry relative to control; format: functional; parameters: scale not given: the % may be the effect or the level left
Rattus norvegicus [5] = test: Antidiabetic activity in STZ-induced diabetic Wistar rat assessed as change in fasting blood glucose level at 15 mg/kg, po administered for 7 days post STZ challenge measured on day 14 by glucometry (reference value: 72.90 +/- 5.2 mg/dl); format: functional
Rattus norvegicus [6] = test: Antidiabetic activity in STZ-induced diabetic Wistar rat blood assessed as creatinine level at 15 mg/kg, po administered for 15 days (reference value: 0.56 +/- 0.03 mg/dl); format: functional
[7] = Toxicity in STZ-induced diabetic Wistar rat kidney assessed as macroscopic pathologic lesions at 15 mg/kg, po administered for 15 days; format: organism-based; conditions: in vivo, 360 h
[8] = Genotoxicity in BALB/c mouse blood at 300 mg/kg after 48 hrs by micronucleus assay; format: toxicity, organism-based; conditions: in vivo
Rattus norvegicus [9] = test: Antidiabetic activity in STZ-induced diabetic Wistar rat assessed as change in fasting blood glucose level at 15 mg/kg, po administered for 15 days post STZ challenge measured on day 21 by glucometry (reference value: 72.90 +/- 5.2 mg/dl); format: functional
[10] = Mutagenicity in Salmonella typhimurium TA102 assessed as mutagenic index at 50 uM/plate after 48 hrs in absence of S9 fraction by Ames test relative to control; format: toxicity; conditions: salmonella enterica subsp. enterica serovar typhimurium, s9, 48 h
[11] = Mutagenicity in Salmonella typhimurium TA98 assessed as mutagenic index at 100 uM/plate after 48 hrs in absence of S9 fraction by Ames test relative to control; format: toxicity; conditions: salmonella enterica subsp. enterica serovar typhimurium, s9, 48 h
Rattus norvegicus [12] = test: Antioxidant activity in STZ-induced diabetic Wistar rat liver assessed as glutathione peroxidase level measured as NADPH consumption per mg of protein at 15 mg/kg, po administered for 15 days (reference value: 10 +/- 0.6 microM/min); format: functional
Rattus norvegicus [13] = test: Antidiabetic activity in STZ-induced diabetic Wistar rat assessed as body weight at 15 mg/kg, po administered on day 7 post STZ challenge measured immediately post dosage (reference value: 319.4 +/- 6.9 g); format: functional
[14] = Mutagenicity in Salmonella typhimurium TA98 assessed as mutagenic index at 8.65 uM/plate after 48 hrs in presence of S9 fraction by Ames test relative to control; format: toxicity, subcellular; conditions: salmonella enterica subsp. enterica serovar typhimurium, s9, 48 h
[15] = Mutagenicity in Salmonella typhimurium TA102 assessed as mutagenic index at 100 uM/plate after 48 hrs in absence of S9 fraction by Ames test relative to control; format: toxicity; conditions: salmonella enterica subsp. enterica serovar typhimurium, s9, 48 h
Rattus norvegicus [16] = test: Antidiabetic activity in STZ-induced diabetic Wistar rat blood assessed as cholesterol level at 15 mg/kg, po administered for 15 days (reference value: 80.09 +/- 9.35 mg/dl); format: functional
[17] = Mutagenicity in Salmonella typhimurium TA100 assessed as mutagenic index at 100 uM/plate after 48 hrs in presence of S9 fraction by Ames test relative to control; format: toxicity, subcellular; conditions: salmonella enterica subsp. enterica serovar typhimurium, s9, 48 h
Rattus norvegicus [18] = test: Antidiabetic activity in STZ-induced diabetic Wistar rat assessed as body weight at 15 mg/kg, po administered for 15 days post STZ challenge measured on day 21 (reference value: 319.4 +/- 6.9 g); format: functional
Rattus norvegicus [19] = test: Antioxidant activity in STZ-induced diabetic Wistar rat liver assessed as SOD level measured per mg of protein at 15 mg/kg, po administered for 15 days by NBT reduction test (reference value: 0.22 +/- 0.06 microM/min); format: functional
[20] = Mutagenicity in Salmonella typhimurium TA100 assessed as mutagenic index at 34.60 uM/plate after 48 hrs in absence of S9 fraction by Ames test relative to control; format: toxicity; conditions: salmonella enterica subsp. enterica serovar typhimurium, s9, 48 h, 34.6 µM
[21] = Mutagenicity in Salmonella typhimurium TA100 assessed as mutagenic index at 17.30 uM/plate after 48 hrs in presence of S9 fraction by Ames test relative to control; format: toxicity, subcellular; conditions: salmonella enterica subsp. enterica serovar typhimurium, s9, 48 h, 17.3 µM
[22] = Mutagenicity in Salmonella typhimurium TA102 assessed as mutagenic index at 100 uM/plate after 48 hrs in presence of S9 fraction by Ames test relative to control; format: toxicity, subcellular; conditions: salmonella enterica subsp. enterica serovar typhimurium, s9, 48 h
[23] = Mutagenicity in Salmonella typhimurium TA100 assessed as mutagenic index at 100 uM/plate after 48 hrs in absence of S9 fraction by Ames test relative to control; format: toxicity; conditions: salmonella enterica subsp. enterica serovar typhimurium, s9, 48 h
Rattus norvegicus [24] = test: Antidiabetic activity in STZ-induced diabetic Wistar rat liver assessed as effect on central vein architecture at 15 mg/kg, po administered for 15 days by hematoxylin/eosin staining based microscopy; format: functional, organism-based
[25] = Mutagenicity in Salmonella typhimurium TA100 assessed as mutagenic index at 8.65 uM/plate after 48 hrs in absence of S9 fraction by Ames test relative to control; format: toxicity; conditions: salmonella enterica subsp. enterica serovar typhimurium, s9, 48 h
[26] = Mutagenicity in Salmonella typhimurium TA98 assessed as mutagenic index at 17.30 uM/plate after 48 hrs in presence of S9 fraction by Ames test relative to control; format: toxicity, subcellular; conditions: salmonella enterica subsp. enterica serovar typhimurium, s9, 48 h, 17.3 µM
[27] = Mutagenicity in Salmonella typhimurium TA98 assessed as mutagenic index at 100 uM/plate after 48 hrs in presence of S9 fraction by Ames test relative to control; format: toxicity, subcellular; conditions: salmonella enterica subsp. enterica serovar typhimurium, s9, 48 h
[28] = Toxicity in STZ-induced diabetic Wistar rat liver assessed as macroscopic pathologic lesions at 15 mg/kg, po administered for 15 days; format: organism-based; conditions: in vivo, 360 h
[29] = Mutagenicity in Salmonella typhimurium TA98 assessed as mutagenic index at 8.65 uM/plate after 48 hrs in absence of S9 fraction by Ames test relative to control; format: toxicity; conditions: salmonella enterica subsp. enterica serovar typhimurium, s9, 48 h
[30] = Mutagenicity in Salmonella typhimurium TA102 assessed as mutagenic index at 34.60 uM/plate after 48 hrs in presence of S9 fraction by Ames test relative to control; format: toxicity, subcellular; conditions: salmonella enterica subsp. enterica serovar typhimurium, s9, 48 h, 34.6 µM
Rattus norvegicus [31] = test: Antidiabetic activity in STZ-induced diabetic Wistar rat assessed as effect on islets of langerhans morphology at 15 mg/kg, po administered for 15 days by fluorescence microscopy; format: functional, organism-based
[32] = Mutagenicity in Salmonella typhimurium TA98 assessed as mutagenic index at 34.60 uM/plate after 48 hrs in presence of S9 fraction by Ames test relative to control; format: toxicity, subcellular; conditions: salmonella enterica subsp. enterica serovar typhimurium, s9, 48 h, 34.6 µM
[33] = Mutagenicity in Salmonella typhimurium TA100 assessed as mutagenic index at 17.30 uM/plate after 48 hrs in absence of S9 fraction by Ames test relative to control; format: toxicity; conditions: salmonella enterica subsp. enterica serovar typhimurium, s9, 48 h, 17.3 µM
Rattus norvegicus [34] = test: Antidiabetic activity in STZ-induced diabetic Wistar rat assessed as effect on hepatocytes surrounding central vein architecture at 15 mg/kg, po administered for 15 days by hematoxylin/eosin staining based microscopy; format: functional, organism-based
Rattus norvegicus [35] = test: Antidiabetic activity in STZ-induced diabetic Wistar rat assessed as increase in body weight at 15 mg/kg, po administered for 15 days post STZ challenge measured on day 21; format: functional

Question: For `CC(=O)O[C@@H]1c2c(ccc3ccc(=O)oc23)OC(C)(C)[C@@H]1OC(C)=O` (relative stereo) [QUIANHUCOUMARIN D], which LD50 at 336 h [1] is on record?
Answer: Its LD50 at 336 h is greater than 2000 mg/kg.

Question: What about the Ratio [2] of the same compound?
Answer: The Ratio was 1.2.

Question: What about the Ratio [3] of the same compound?
Answer: The Ratio was 0.9.

Question: And the Activity (Rattus norvegicus [4])?
Answer: Its Activity is 60.9%.

Question: What about the Activity (Rattus norvegicus [5]) of the same compound?
Answer: Its Activity is 280.7 mg/dL.

Question: What about the Activity (Rattus norvegicus [6]) of the same compound?
Answer: Its Activity is 0.51 mg/dL.

Question: And the Activity [7]?
Answer: The Activity was “Non-Toxic”.

Question: What about the Activity [8] of the same compound?
Answer: The Activity was “Non-Toxic”.

Question: What about the Activity (Rattus norvegicus [9]) of the same compound?
Answer: Its Activity is 128.3 mg/dL.

Question: And the Ratio [10]?
Answer: Its Ratio is 1.1.

Question: And the Ratio [11]?
Answer: Its Ratio is 0.4.

Question: What about the Activity (Rattus norvegicus [12]) of the same compound?
Answer: Its Activity is 119 µM/min.

Question: And the Activity (Rattus norvegicus [13])?
Answer: The Activity was 335.3 g.

Question: What about the Ratio [14] of the same compound?
Answer: The Ratio was 1.1.

Question: What about the Ratio [15] of the same compound?
Answer: Its Ratio is 0.8.

Question: And the Activity (Rattus norvegicus [16])?
Answer: Its Activity is 70.84 mg/dL.

Question: What about the Ratio [17] of the same compound?
Answer: Its Ratio is 1.

Question: What about the Activity (Rattus norvegicus [18]) of the same compound?
Answer: The Activity was 365.1 g.

Question: What about the Activity (Rattus norvegicus [19]) of the same compound?
Answer: The Activity was 0.73 U/min.

Question: What about the Ratio [20] of the same compound?
Answer: Its Ratio is 1.

Question: What about the Ratio [21] of the same compound?
Answer: Its Ratio is 0.9.

Question: And the Ratio [22]?
Answer: Its Ratio is 0.9.

Question: What about the Ratio [23] of the same compound?
Answer: The Ratio was 1.4.

Question: And the Activity (Rattus norvegicus [24])?
Answer: Its Activity is “Active”.

Question: What about the Ratio [25] of the same compound?
Answer: The Ratio was 1.3.

Question: And the Ratio [26]?
Answer: Its Ratio is 1.2.

Question: And the Ratio [27]?
Answer: The Ratio was 1.4.

Question: What about the Activity [28] of the same compound?
Answer: The Activity was “Non-Toxic”.

Question: And the Ratio [29]?
Answer: Its Ratio is 0.7.

Question: What about the Ratio [30] of the same compound?
Answer: Its Ratio is 1.4.

Question: What about the Activity (Rattus norvegicus [31]) of the same compound?
Answer: The Activity was “Active”.

Question: What about the Ratio [32] of the same compound?
Answer: The Ratio was 1.2.

Question: And the Ratio [33]?
Answer: The Ratio was 1.

Question: And the Activity (Rattus norvegicus [34])?
Answer: The Activity was “Active”.

Question: What about the Activity (Rattus norvegicus [35]) of the same compound?
Answer: Its Activity is 45.7 g.
